Experimental findings from patent publication US8865623B2, “Herbicidally active cyclic diones and derivatives thereof, processes for their preparation, compositions, and method of controlling weeds” (Syngenta Limited, priority 2009, dated 2014) are described below.

Holding throughout (assay type): in vivo
Assay [1] relates to Alopecurus myosuroides (ALOMY). In words: Post-emergence herbicidal activity, glasshouse pot test. Conditions: rate 250 g/ha, evaluated after 13 days; for pest or weed control at 250 g/ha: Alopecurus myosuroides, 312 h, read-out: Post-emergence activity ALOMY (100=total damage to plant; 0=no damage to plant). An outline of the steps: (§1)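 Seeds sown in standard soil in pots were sprayed 1 day after sowing (pre-emergence) or after 8 days' cultivation (post-emergence) with aqueous spray from acetone/water (50:50) formulation containing 0.5% Tween 20. Plants grew at 24/16° C day/night, 14 h light, 65% humidity, watered twice daily. Damage scored after 13 days, 0–100.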

Assay [2] deals with Echinochloa crus-galli (ECHCG). Described as above. Conditions: rate 250 g/ha, evaluated after 13 days; for pest or weed control at 250 g/ha: Echinochloa crus-galli, 312 h, read-out: Post-emergence activity ECHCG (100=total damage to plant; 0=no damage to plant). The procedure, abridged: as §1
Assay [3] relates to Lolium perenne (LOLPE). Described as above. Conditions: rate 250 g/ha, evaluated after 13 days; for pest or weed control at 250 g/ha: Lolium perenne, 312 h, read-out: Post-emergence activity LOLPE (100=total damage to plant; 0=no damage to plant). An outline of the steps:
as §1

In assay [4] the test system is Avena fatua (AVEFA). The assay is described as above. Conditions: rate 250 g/ha, evaluated after 13 days; for pest or weed control at 250 g/ha: Avena fatua, 312 h, read-out: Post-emergence activity AVEFA (100=total damage to plant; 0=no damage to plant). An outline of the steps:
as §1

For assay [5], the system named is Alopecurus myosuroides (ALOMY). Nature of the assay: Pre-emergence herbicidal activity, glasshouse pot test. Conditions: pre-emergence, evaluated after 13 days; for pest or weed control at 250 g/ha: Alopecurus myosuroides, 312 h, Rate 250 g/ha, read-out: Pre-emergence activity ALOMY (100=total damage to plant; 0=no damage to plant); for ALOMY damage to plant (100=total damage to plant; 0=no damage to plant): rate 250 g/ha. The procedure, abridged: as §1

Assay [6] relates to Echinochloa crus-galli (ECHCG). Described as above. The settings on record: pre-emergence, evaluated after 13 days; for pest or weed control at 250 g/ha: Echinochloa crus-galli, 312 h, Rate 250 g/ha, read-out: Pre-emergence activity ECHCG (100=total damage to plant; 0=no damage to plant); for ECHCG damage to plant (100=total damage to plant; 0=no damage to plant): rate 250 g/ha. The procedure, abridged:
as §1

For assay [7], the system named is Lolium perenne (LOLPE). The description is as above. The settings on record: pre-emergence, evaluated after 13 days; for pest or weed control at 250 g/ha: Lolium perenne, 312 h, Rate 250 g/ha, read-out: Pre-emergence activity LOLPE (100=total damage to plant; 0=no damage to plant); for LOLPE damage to plant (100=total damage to plant; 0=no damage to plant): rate 250 g/ha. An outline of the steps:
as §1

Assay [8] concerns Avena fatua (AVEFA). Described as above. The settings on record: pre-emergence, evaluated after 13 days; for pest or weed control at 250 g/ha: Avena fatua, 312 h, Rate 250 g/ha, read-out: Pre-emergence activity AVEFA (100=total damage to plant; 0=no damage to plant); for AVEFA damage to plant (100=total damage to plant; 0=no damage to plant): rate 250 g/ha. An outline of the steps:
as §1

For the compound `CC1(C)OC(C)(C)C(O)=C(c2cc(Oc3ccc(Cl)cc3)ccc2C2CC2)C1=O` [Example A-349], the pest or weed control at 250 g/ha in assay [1] came to 60%; in assay [2] it was 100%; with Lolium perenne (LOLPE) [3], 80%; in the assay on Avena fatua (AVEFA) [4], 0%; in assay [5] it was 40%; in assay [6], 100%. The results for the pest or weed control at 250 g/ha in the assay with Lolium perenne (LOLPE) [7] and in the assay with Avena fatua (AVEFA) [8] were 90% and 10%, respectively.

With `CC1(C)OC(C)(C)C(O)=C(c2cc(Oc3ccc(Br)cc3F)ccc2C2CC2)C1=O` [Example A-350], the pest or weed control at 250 g/ha in assay [1] is 90%; in assay [2], 100%; in the assay on Lolium perenne (LOLPE) [3], 90%; in the assay with Avena fatua (AVEFA) [4] it was 90%; in assay [5], 90%; in assay [6] it was 100%. The pest or weed control at 250 g/ha in the assay on Lolium perenne (LOLPE) [7] was 100%; in the assay with Avena fatua (AVEFA) [8] it was 50%.

Take `CC1(C)OC(C)(C)C(O)=C(c2cc(Oc3ccc(Br)cc3)ccc2C2CC2)C1=O` [Example A-351]: the pest or weed control at 250 g/ha in assay [1] is 90%; in assay [2], 100%; in the assay with Lolium perenne (LOLPE) [3], 100%; in the assay with Avena fatua (AVEFA) [4], 10%; in assay [5] it was 60%; in assay [6], 100%. In addition, the pest or weed control at 250 g/ha with Lolium perenne (LOLPE) [7] is 90%; with Avena fatua (AVEFA) [8], 10%.

Regarding `CC1(C)OC(C)(C)C(O)=C(c2cc(Oc3ccc(Br)cc3Cl)ccc2C2CC2)C1=O` [Example A-352], the pest or weed control at 250 g/ha in assay [1] amounted to 90%; in assay [2], 100%; with Lolium perenne (LOLPE) [3], 90%; in the assay with Avena fatua (AVEFA) [4], 70%; in assay [5], 70%; in assay [6], 100%. Besides, the pest or weed control at 250 g/ha in the assay on Lolium perenne (LOLPE) [7] came out at 90%; in the assay with Avena fatua (AVEFA) [8], 20%.

For `CC1(C)OC(C)(C)C(O)=C(c2cc(Oc3ccc(F)cc3)ccc2C2CC2)C1=O` [Example A-353], the pest or weed control at 250 g/ha in assay [1] worked out at 10%; in assay [2], 100%; in the assay with Lolium perenne (LOLPE) [3], 50%; in the assay on Avena fatua (AVEFA) [4], 10%; in assay [5], 0%; in assay [6], 100%. Also, the values for the pest or weed control at 250 g/ha with Lolium perenne (LOLPE) [7] and in the assay with Avena fatua (AVEFA) [8] were 30% and 0%, respectively.

With `CC1(C)OC(C)(C)C(O)=C(c2cc(Oc3ccc(OC(F)(F)F)cc3)ccc2C2CC2)C1=O` [Example A-356], the pest or weed control at 250 g/ha in assay [1] was found to be 100%; in assay [2], 100%; in the assay with Lolium perenne (LOLPE) [3], 100%; in the assay on Avena fatua (AVEFA) [4], 100%; in assay [5] it was 90%; in assay [6], 100%. In addition, the figures for the pest or weed control at 250 g/ha in the assay with Lolium perenne (LOLPE) [7] and with Avena fatua (AVEFA) [8] were 100% and 70%, respectively.

Turning to `CC1(C)OC(C)(C)C(O)=C(c2cc(Oc3cc(C#N)ccc3F)ccc2C2CC2)C1=O` [Example A-358], the pest or weed control at 250 g/ha was 90% in assay [1]; 100% in assay [2]; 60% in the assay on Lolium perenne (LOLPE) [3]; 60% with Avena fatua (AVEFA) [4]; 60% in assay [5]; 90% in assay [6]. Further, the figures for the pest or weed control at 250 g/ha with Lolium perenne (LOLPE) [7] and with Avena fatua (AVEFA) [8] were 90% and 0%, respectively.

For `CC1(C)OC(C)(C)C(O)=C(c2cc(Oc3ncc(Cl)cc3Cl)ccc2C2CC2)C1=O` [Example A-364], the pest or weed control at 250 g/ha came to 100% in assay [1]; 100% in assay [2]; 90% in the assay on Lolium perenne (LOLPE) [3]; 90% in the assay on Avena fatua (AVEFA) [4]; 70% in assay [5]; 100% in assay [6]. Also, the pest or weed control at 250 g/ha in the assay on Lolium perenne (LOLPE) [7] is 90%; in the assay on Avena fatua (AVEFA) [8], 60%.

For `CC1(C)OC(C)(C)C(O)=C(c2cc(Oc3nc4ccccc4s3)ccc2C2CC2)C1=O` [Example A-365], the pest or weed control at 250 g/ha in assay [1] amounted to 100%; in assay [2] it was 100%; in the assay with Lolium perenne (LOLPE) [3] it was 100%; in the assay on Avena fatua (AVEFA) [4] it was 10%; in assay [5], 80%; in assay [6], 100%. The pest or weed control at 250 g/ha was 90% with Lolium perenne (LOLPE) [7] and 0% in the assay with Avena fatua (AVEFA) [8].

Regarding `CC1(C)OC(C)(C)C(O)=C(c2cc(Oc3nc4ccc(Cl)cc4s3)ccc2C2CC2)C1=O` [Example A-366], the pest or weed control at 250 g/ha was 100% in assay [1]; 100% in assay [2]; 100% with Lolium perenne (LOLPE) [3]; 80% in the assay on Avena fatua (AVEFA) [4]; 50% in assay [5]; 90% in assay [6]. Moreover, the pest or weed control at 250 g/ha turned out to be 90% with Lolium perenne (LOLPE) [7] and 30% in the assay on Avena fatua (AVEFA) [8].

Turning to `CC1(C)OC(C)(C)C(O)=C(c2cc(Oc3nc4ccc(C(F)(F)F)cc4s3)ccc2C2CC2)C1=O` [Example A-370], the pest or weed control at 250 g/ha came out at 90% in assay [1]; 100% in assay [2]; 80% in the assay with Lolium perenne (LOLPE) [3]; 100% with Avena fatua (AVEFA) [4]; 50% in assay [5]; 70% in assay [6]. For the same compound, the pest or weed control at 250 g/ha in the assay with Lolium perenne (LOLPE) [7] worked out at 90%; in the assay on Avena fatua (AVEFA) [8] it was 30%.

`CC1(C)OC(C)(C)C(O)=C(c2cc(Oc3cnc4cc(F)ccc4n3)ccc2C2CC2)C1=O` [Example A-372]: the pest or weed control at 250 g/ha in assay [1] was found to be 100%; in assay [2] it was 100%; in the assay on Lolium perenne (LOLPE) [3], 100%; in the assay with Avena fatua (AVEFA) [4], 100%; in assay [5], 70%; in assay [6], 90%. Besides, the figures for the pest or weed control at 250 g/ha in the assay on Lolium perenne (LOLPE) [7] and in the assay on Avena fatua (AVEFA) [8] were 100% and 90%, respectively.

`COc1ccc2nc(Oc3ccc(C4CC4)c(C4=C(O)C(C)(C)OC(C)(C)C4=O)c3)sc2c1` [Example A-374]: the pest or weed control at 250 g/ha turned out to be 90% in assay [1]; 100% in assay [2]; 100% in the assay on Lolium perenne (LOLPE) [3]; 90% with Avena fatua (AVEFA) [4]; 50% in assay [5]; 90% in assay [6]. The pest or weed control at 250 g/ha in the assay on Lolium perenne (LOLPE) [7] came out at 100%; with Avena fatua (AVEFA) [8], 30%.

Consider `CC1(C)OC(C)(C)C(O)=C(c2cc(Oc3ncc(Cl)cc3C(F)(F)F)ccc2C2CC2)C1=O` [Example A-377], for which the pest or weed control at 250 g/ha in assay [1] worked out at 100%; in assay [2], 100%; in the assay with Lolium perenne (LOLPE) [3], 100%; in the assay on Avena fatua (AVEFA) [4], 100%; in assay [5], 70%; in assay [6], 100%. The pest or weed control at 250 g/ha in the assay with Lolium perenne (LOLPE) [7] is 80%; in the assay on Avena fatua (AVEFA) [8] it was 60%.

For `CCc1ccc(Oc2ccc(C#N)cc2F)cc1C1=C(OC(C)=O)C(C)(C)OC(C)(C)C1=O` [Example P-1], the “ALOMY damage to plant (100=total damage to plant; 0=no damage to plant)” value in assay [1] and in assay [5] was 80 throughout. In addition, the “ECHCG damage to plant (100=total damage to plant; 0=no damage to plant)” value in assay [2] and in assay [6] was 100 throughout. The “LOLPE damage to plant (100=total damage to plant; 0=no damage to plant)” value with Lolium perenne (LOLPE) [3] was 90; in the assay with Lolium perenne (LOLPE) [7], 100. For the same compound, the “AVEFA damage to plant (100=total damage to plant; 0=no damage to plant)” value in the assay with Avena fatua (AVEFA) [4] is listed as 60; in the assay with Avena fatua (AVEFA) [8] it was 20.

With `CCC(=O)OC1=C(c2cc(Oc3ccc(C#N)cc3F)ccc2CC)C(=O)C(C)(C)OC1(C)C` [Example P-2], the results for the “ALOMY damage to plant (100=total damage to plant; 0=no damage to plant)” value in assay [1] and in assay [5] were 90 and 80, respectively. The “ECHCG damage to plant (100=total damage to plant; 0=no damage to plant)” value in assay [2] and in assay [6] was 100 in each case. Besides, the “LOLPE damage to plant (100=total damage to plant; 0=no damage to plant)” value turned out to be 90 with Lolium perenne (LOLPE) [3] and 100 in the assay with Lolium perenne (LOLPE) [7]. The “AVEFA damage to plant (100=total damage to plant; 0=no damage to plant)” value with Avena fatua (AVEFA) [4] and with Avena fatua (AVEFA) [8] was 70 throughout.
